Results published in US20150218172A1, “Pyrrolo[2,3-D]Pyrimidine Tropomyosin-Related Kinase Inhibitors” (PFIZER LIMITED, priority 2012, published 2015).

Target: T1, TrkA (Homo sapiens, UniProt P04629)
T1 construct: aa 441-796; His; purchased Invitrogen PV3144
Experiment: Isolated TRK enzyme assay (HTRF KinEASE-TK kit), PV3144 TrkA enzyme assay
Assay type: biochemical
Details: PV3144 TrkA enzyme assay, recombinant His-tagged cytoplasmic domain aa 441-796, 4 nM enzyme, 40 uM ATP; arithmetic mean where more than one reading; read-out: Trka enzyme (IC50)
In short: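 Recombinant His-tagged cytoplasmic domain of human TrkA, preactivated with ATP for 20 min, then 20 min with compound before biotinylated TK substrate (1 uM final) at room temperature. HTRF read at 665/620 nm; % inhibition normalised to reference-compound and DMSO controls, IC50 from sigmoid fit, mean of replicates.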

T1 sequence (P04629 441-796): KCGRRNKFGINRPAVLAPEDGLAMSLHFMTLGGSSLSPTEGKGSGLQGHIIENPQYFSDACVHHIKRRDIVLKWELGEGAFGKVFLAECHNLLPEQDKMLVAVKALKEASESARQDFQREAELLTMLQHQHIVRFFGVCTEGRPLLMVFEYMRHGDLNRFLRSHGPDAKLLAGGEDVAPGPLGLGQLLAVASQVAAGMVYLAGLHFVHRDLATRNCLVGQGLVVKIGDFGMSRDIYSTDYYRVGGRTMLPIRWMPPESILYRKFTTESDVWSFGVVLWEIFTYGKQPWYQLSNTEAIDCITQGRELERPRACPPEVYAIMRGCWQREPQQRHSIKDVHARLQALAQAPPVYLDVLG

| Molecule | IC50 [nM] |
| --- | --- |
| Cc1cc(C)n(CC(=O)Nc2cc(C(=O)c3cn(CC(C)(C)O)c4ncncc34)ccn2)n1 [Example 127, 2-(3,5-dimethyl-1H-pyrazol-1-yl)-N-(4-{[7-(2-hydroxy-2-methylpropyl)-7H-pyrrolo[2,3-d]pyrimidin-5-yl]carbonyl}pyridin-2-yl)acetamide] | 1110 |
| O=C(Cc1cccc(Cl)c1)Nc1cc(C(=O)c2cn(CCO)c3ncncc23)ccn1 [Example 146, 2-(3-chlorophenyl)-N-(4-{[7-(2-hydroxyethyl)-7H-pyrrolo[2,3-d]pyrimidin-5-yl]carbonyl}pyridin-2-yl)acetamide] | 246 |
| CC(C)c1cn(CC(=O)Nc2cc(C(=O)c3cn(CCO)c4ncncc34)ccn2)nn1 [Example 129, N-(4-{[7-(2-hydroxyethyl)-7H-pyrrolo[2,3-d]pyrimidin-5-yl]carbonyl}pyridin-2-yl)-2-[4-(propan-2-yl)-1H-1,2,3-triazol-1-yl]acetamide] | 201 |
| CC(C)c1ccnn1CC(=O)Nc1cc(C(=O)c2cn(C(C)C)c3ncncc23)ccn1 [Example 148, 2-[5-(propan-2-yl)-1H-pyrazol-1-yl]-N-(4-{[7-(propan-2-yl)-7H-pyrrolo[2,3-d]pyrimidin-5-yl]carbonyl}pyridin-2-yl)acetamide] | 185 |
| Cc1cn(CC(=O)Nc2cc(C(=O)c3cn(CCO)c4ncncc34)ccn2)nn1 [Example 133, N-(4-{[7-(2-hydroxyethyl)-7H-pyrrolo[2,3-d]pyrimidin-5-yl]carbonyl}pyridin-2-yl)-2-(4-methyl-1H-1,2,3-triazol-1-yl)acetamide] | 9380 |
| Cc1cc(C(=O)c2cn(C(C)C)c3ncncc23)cc(NC(=O)Cc2ccccc2)n1 [Example 75, N-(6-methyl-4-{[7-(propan-2-yl)-7H-pyrrolo[2,3-d]pyrimidin-5-yl]carbonyl}pyridin-2-yl)-2-phenylacetamide] | 306 |
| O=C(Cc1ccccc1OC(F)(F)F)Nc1cc(C(=O)c2cn(CCO)c3ncncc23)ccn1 [Example 134, N-(4-{[7-(2-hydroxyethyl)-7H-pyrrolo[2,3-d]pyrimidin-5-yl]carbonyl}pyridin-2-yl)-2-[2-(trifluoromethoxy)phenyl]acetamide] | 583 |
| CC(C)(CO)n1cc(C(=O)c2cc(NC(=O)Cn3cc(C(F)(F)F)nn3)ccn2)c2cncnc21 [Example 54, N-(2-{[7-(1-hydroxy-2-methylpropan-2-yl)-7H-pyrrolo[2,3-d]pyrimidin-5-yl]carbonyl}pyridin-4-yl)-2-[4-(trifluoromethyl)-1H-1,2,3-triazol-1-yl]acetamide] | 46.2 |
| COc1cc(C(=O)c2cn(C(C)C)c3ncncc23)cc(NC(=O)Cc2ccc(C#N)cc2)n1 [Example 165, 2-(4-cyanophenyl)-N-(6-methoxy-4-{[7-(propan-2-yl)-7H-pyrrolo[2,3-d]pyrimidin-5-yl]carbonyl}pyridin-2-yl)acetamide] | 1040 |
| CC1(n2cc(C(=O)c3cc(NC(=O)Cc4ccc(C#N)cc4)ccn3)c3cncnc32)COC1 [Example 169, 2-(4-cyanophenyl)-N-(2-{[7-(3-methyloxetan-3-yl)-7H-pyrrolo[2,3-d]pyrimidin-5-yl]carbonyl}pyridin-4-yl)acetamide] | 459 |
| N-(2-{[7-(propan-2-yl)-7H-pyrrolo[2,3-d]pyrimidin-5-yl]carbonyl}pyridin-4-yl)-2-[4-(trifluoromethyl)-1H-1,2,3-triazol-1-yl]acetamide [Example 80] | 150 |
| COc1ccc(CC(=O)Nc2cc(C(=O)c3cn(C(C)C)c4ncncc34)ccn2)cc1 [Example 161, 2-(4-methoxyphenyl)-N-(4-{[7-(propan-2-yl)-7H-pyrrolo[2,3-d]pyrimidin-5-yl]carbonyl}pyridin-2-yl)acetamide] | 60.8 |
| C[C@H](CO)n1cc(C(=O)c2cc(NC(=O)Cc3ccc(Cl)cn3)ccn2)c2cncnc21 [Example 25, 2-(5-chloropyridin-2-yl)-N-[2-({7-[(2R)-1-hydroxypropan-2-yl]-7H-pyrrolo[2,3-d]pyrimidin-5-yl}carbonyl)pyridin-4-yl]acetamide] | 363 |
| CC(C)n1cc(C(=O)c2cc(NC(=O)Cn3cc(C4CC4)nn3)ccn2)c2cncnc21 [Example 82, 2-(4-cyclopropyl-1H-1,2,3-triazol-1-yl)-N-(2-{[7-(propan-2-yl)-7H-pyrrolo[2,3-d]pyrimidin-5-yl]carbonyl}pyridin-4-yl)acetamide] | 76.1 |
| CC(C)n1cc(C(=O)c2ccnc(NC(=O)Cc3ccc(F)cn3)c2)c2cncnc21 [Example 73, 2-(5-fluoropyridin-2-yl)-N-(4-{[7-(propan-2-yl)-7H-pyrrolo[2,3-d]pyrimidin-5-yl]carbonyl}pyridin-2-yl)acetamide] | 58.2 |
| Cc1cc(C(F)(F)F)nn1CC(=O)Nc1cc(C(=O)c2cn(C(C)C)c3nc(O)ncc23)ccn1 [Example 125, N-(4-{[2-hydroxy-7-(propan-2-yl)-7H-pyrrolo[2,3-d]pyrimidin-5-yl]carbonyl}pyridin-2-yl)-2-[5-methyl-3-(trifluoromethyl)-1H-pyrazol-1-yl]acetamide] | 250 |
| CC(CO)(CO)n1cc(C(=O)c2cc(NC(=O)Cn3ccc(C(F)(F)F)n3)ccn2)c2cncnc21 [Example 105, N-(2-{[7-(1,3-dihydroxy-2-methylpropan-2-yl)-7H-pyrrolo[2,3-d]pyrimidin-5-yl]carbonyl}pyridin-4-yl)-2-[3-(trifluoromethyl)-1H-pyrazol-1-yl]acetamide] | 72.7 |
| CC(CO)(CO)n1cc(C(=O)c2cc(NC(=O)Cc3ccc(Cl)cn3)ccn2)c2cncnc21 [Example 106, 2-(5-chloropyridin-2-yl)-N-(2-{[7-(1,3-dihydroxy-2-methylpropan-2-yl)-7H-pyrrolo[2,3-d]pyrimidin-5-yl]carbonyl}pyridin-4-yl)acetamide] | 663 |
| CC(C)(CO)n1cc(C(=O)c2ccc(C#N)c(NC(=O)Cn3cc(C(F)(F)F)nn3)c2)c2cnc(N)nc21 [Example 12, N-(5-{[2-amino-7-(1-hydroxy-2-methylpropan-2-yl)-7H-pyrrolo[2,3-d]pyrimidin-5-yl]carbonyl}-2-cyanophenyl)-2-[4-(trifluoromethyl)-1H-1,2,3-triazol-1-yl]acetamide] | 60.7 |

The next molecules have a lower IC50 than those just listed; values first:

| IC50 [nM] | Molecule |
| --- | --- |
| 25.4 | CC(C)(C)n1cc(C(=O)c2ccnc(NC(=O)Cc3ccc(C#N)cc3)c2)c2cncnc21 [Example 173, N-{4-[(7-tert-butyl-7H-pyrrolo[2,3-d]pyrimidin-5-yl)carbonyl}pyridin-2-yl]-2-(4-cyanophenyl)acetamide] |
| 27.1 | Cc1cc(C(F)(F)F)nn1CC(=O)Nc1ccnc(C(=O)c2cn(C(C)C)c3nc(N)ncc23)c1 [Example 84, N-(2-{[2-amino-7-(propan-2-yl)-7H-pyrrolo[2,3-d]pyrimidin-5-yl]carbonyl}pyridin-4-yl)-2-[5-methyl-3-(trifluoromethyl)-1H-pyrazol-1-yl]acetamide] |
| 29.5 | O=C(Cc1ccc(C(F)(F)F)c(F)c1)Nc1cc(C(=O)c2cn(CCO)c3ncncc23)ccn1 [Example 142, 2-[3-fluoro-4-(trifluoromethyl)phenyl]-N-(4-{[7-(2-hydroxyethyl)-7H-pyrrolo[2,3-d]pyrimidin-5-yl]carbonyl}pyridin-2-yl)acetamide] |
| 15.1 | CC(C)n1cc(C(=O)c2ccnc(NC(=O)Cc3ccc(C(F)(F)F)c(F)c3)c2)c2cncnc21 [Example 124, 2-[3-fluoro-4-(trifluoromethyl)phenyl]-N-(4-{[7-(propan-2-yl)-7H-pyrrolo[2,3-d]pyrimidin-5-yl]carbonyl}pyridin-2-yl)acetamide] |
| 21.2 | Cc1cc(C(C)C)nn1CC(=O)Nc1cc(C(=O)c2cn(C(C)C)c3ncncc23)ccn1 [Example 151, 2-[5-methyl-3-(propan-2-yl)-1H-pyrazol-1-yl]-N-(4-{[7-(propan-2-yl)-7H-pyrrolo[2,3-d]pyrimidin-5-yl]carbonyl}pyridin-2-yl)acetamide] |
| 9.7 | CC(C)(CO)n1cc(C(=O)c2cc(NC(=O)Cc3cccc(C(F)(F)F)c3)ccn2)c2cnc(N)nc21 [Example 49, N-(2-{[2-amino-7-(1-hydroxy-2-methylpropan-2-yl)-7H-pyrrolo[2,3-d]pyrimidin-5-yl]carbonyl}pyridin-4-yl)-2-[3-(trifluoromethyl)phenyl]acetamide] |
| 11.6 | CC(C)(CO)n1cc(C(=O)c2cc(NC(=O)Cc3ccc(Cl)cn3)ccn2)c2cncnc21 [Example 58, 2-(5-chloropyridin-2-yl)-N-(2-{[7-(1-hydroxy-2-methylpropan-2-yl)-7H-pyrrolo[2,3-d]pyrimidin-5-yl]carbonyl}pyridin-4-yl)acetamide] |
| 5.93 | CC(C)(CO)n1cc(C(=O)c2ccc(C#N)c(NC(=O)Cc3ccc(C(F)(F)F)cc3)c2)c2cnc(N)nc21 [Example 7, N-{5-[2-Amino-7-(2-hydroxy-1,1-dimethyl-ethyl)-7H-pyrrolo[2,3-d]pyrimidine-5-carbonyl]-2-cyano-phenyl}-2-(4-trifluoromethyl-phenyl)-acetamide] |
| 42.1 | CC(C)n1cc(C(=O)c2ccnc(NC(=O)Cc3cccc(S(C)(=O)=O)c3)c2)c2cncnc21 [Example 123, 2-[3-(methylsulfonyl)phenyl]-N-(4-{[7-(propan-2-yl)-7H-pyrrolo[2,3-d]pyrimidin-5-yl]carbonyl}pyridin-2-yl)acetamide] |
| 18.5 | CC(C)n1cc(C(=O)c2cc(NC(=O)Cn3cc(C(F)(F)F)nn3)ccn2)c2cnc(N)nc21 [Example 90, N-(2-{[2-amino-7-(propan-2-yl)-7H-pyrrolo[2,3-d]pyrimidin-5-yl]carbonyl}pyridin-4-yl)-2-[4-(trifluoromethyl)-1H-1,2,3-triazol-1-yl]acetamide] |
| 24.5 | C[C@H](CO)n1cc(C(=O)c2cc(NC(=O)Cn3ccc(C(F)(F)F)n3)ccn2)c2cncnc21 [Example 26, N-[2-({7-[(2R)-1-hydroxypropan-2-yl]-7H-pyrrolo[2,3-d]pyrimidin-5-yl}carbonyl)pyridin-4-yl]-2-[3-(trifluoromethyl)-1H-pyrazol-1-yl]acetamide] |
